Results reported in PMC11855827, “High-Throughput Screening of Five Compound Libraries for Anthelmintic Activity and Toxicity Leads to the Discovery of Two Flavonoid Compounds” (International Journal of Molecular Sciences, 2025).
Where “and” joins values, the source holds several entries; their conditions need not be identical. Identical values can stand only once. Like-named read-outs stand apart in the source and are kept apart here. Each block holds one molecule with its values, some of them ahead of it.

Assays:
C. elegans [1] = assay: C. elegans motility dose-response (DR) assay; set-up: species or system Caenorhabditis elegans
in vitro = conditions: C57BL/6, mouse
C. elegans [2] = tested on: C. elegans
C. elegans [3] = conditions: cited from earlier work
C. elegans [4] = assay: microbe, parasite or virus in culture; conditions: Caenorhabditis elegans
[5] = Spheroids toxicity assay (alamarBlue); type: cell-based; conditions: human; for CC50 at 3 d: HepG2 liver spheroids (3D culture)
Protocol: (§1) HepG2 cells were cultured as a monolayer under standard conditions, using DMEM/F12 medium supplemented with L-glutamine and 15 mM HEPES buffer (pH 7.2) supplemented with 10% fetal bovine serum (FBS) and antibiotic mixture (100 U/mL penicillin and 100 µg/mL streptomycin) at 37 °C and 5% CO2, according to previous published protocols.
(§2) Cells were detached from the culture flask using 0.25% trypsin solution and then centrifuged at 500× g for 6.5 min. After centrifugation, the supernatant was discarded, and the pellet was resuspended in culture medium. Cells were passed gently through a G27 needle several times and then counted. Cells were dispensed into a tissue treated Nunclon™ Sphera™ 96-well U-bottom plate (Thermo Scientific™, Waltham, MA, USA, 174925) in a final volume of 50 µL to a total of 2500 cells/well. In addition, another 50 µL of medium supplemented with Rat Tail Collagen I (Gibco™, Thermo Scientific™, Waltham, MA, USA, A1048301) was dispensed, to achieve a final concentration in a plate of 3 µg/mL for each well. The plate was centrifuged at 500× g for 1 min.
(§3) On Day 4, 100 µL of a serial dilution of the testing compounds were added to each well. For controls, 0.03% H2O2 (v/v) as positive control and 0.2% DMSO (v/v) as negative control were used.
(§4) To determine the viability of the spheroids to the testing compounds, a 20% of alamarBlue™ HS reagent (Invitrogen™, Thermo Fisher Scientific™, Waltham, MA, USA) was added on Day 7 and the results were read 24 h later using a Varioskan™ LUX (Thermo Scientific, USA, Instrument software ver. 1.00.37, Skanlt software ver. 5.0.0.42). All assays were conducted in duplicate across at least three independent experiments.

[6] = tested on: H. contortus susceptible strain; assay: Egg hatch inhibition (EHI), ovicidal effect; set-up: species or system Haemonchus contortus; conditions: for EC50: egg hatching, susceptible H. contortus, nine replicates, read-out: Ovicidal Effect EC50 (μM) H. c
[7] = tested on: T. circumcincta resistant strain; assay: Larval migration inhibition test (LMIT); set-up: species or system Teladorsagia circumcincta; conditions: resistant strain, L3, 100 μM, NE = Not Effective at 100 μM, control ivermectin 8.75 µg/mL; for inhibition at 100 µM: Teladorsagia circumcincta, 24 h, read-out: T. circumcincta LMIT (%)
Text: (§5) Eggs and third instar larvae (L3) of H. contortus from a field strain and a resistant strain of T. circumcincta were used in the current trials. These parasitic forms were obtained from fresh feces of Merino and Churra sheep experimentally infected at the experimental farm of the Instituto de Ganadería de Montaña (IGM, CSIC, Gruyeros, León, Spain) and purified according to previously described methods. Briefly, eggs were taken from fresh feces, washed, centrifuged and floated with a saturated sodium chloride solution, then concentrated, counted and used in the assays. L3 were obtained by culturing feces at 25 °C for 13 d. L3 larvae were […] in 0.5% sodium hypochlorite solution for 10 min at room temperature and washed to avoid excess salt. After washing, they were concentrated and counted for use.
(§6) The viability of H. contortus larvae was assessed by the larval migration inhibition test (LMIT) according to previously described methods. Briefly, 700 µL aliquots containing 500–600 L3 were prepared for each compound. […] After a 24 h incubation at 28 °C, the compound was removed by three washes, leaving a final volume of 1400 µL. After the washes, three 400 µL aliquots were taken from each tube and transferred to a 96-well plate with a MultiScreen mesh filter. The plates were incubated for a further 24 h at 28 °C to allow the motile L3 to pass through the 20 µm mesh for counting. Then, the number of larvae present in each well was counted to determine percentage of larval migration for each compound: % Larval migration=number of larvae migrating in compound wells/number of larvae migrating in negative control×100
(§7) For the larvae, ivermectin at 8.75 µg/mL and DMSO 0.5% (v/v) were used as controls and at least 12 replicates were performed. […] EC50 were determined by plotting the percentage of viability of the L1 against the concentration of each compound, using the nonlinear fit analysis provided by the SigmaPlot® 10.1.

[8] = tested on: H. contortus susceptible strain; assay: Larval migration inhibition test (LMIT); set-up: species or system Haemonchus contortus; conditions: L3, 100 μM, NE = Not Effective at 100 μM, control ivermectin 8.75 µg/mL; for inhibition at 100 µM: Haemonchus contortus, 24 h
Text: as §5, §6, §7

[9] = Mouse intestinal organoids' tolerance assay (alamarBlue); conditions: C57BL/6, mouse; for selectivity ratio at 3 d: mouse intestinal organoids (enteroids)
[10] = tested on: T. circumcincta resistant strain; assay: Egg hatch inhibition (EHI), ovicidal effect; set-up: species or system Teladorsagia circumcincta; conditions: for EC50: egg hatching, resistant T. circumcincta, nine replicates, read-out: Ovicidal Effect EC50 (μM) T. c
[11] = Globally Harmonized System (GHS) / ECHA; cited from earlier work
[12] = tested on: Staphylococcus epidermidis, Escherichia coli, and Candida albicans; set-up: method as in earlier work; conditions: in vitro; cited from earlier work
[13] = human poisoning case; cited from earlier work
H. contortus L3-L4 = conditions: read-out: IC50 against H. contortus L3-L4; cited from earlier work
[14] = mice, estimated; cited from earlier work
HepG2 liver spheroids = assay: Spheroids toxicity assay (alamarBlue); type: cell-based
Protocol: as §1, §2, §3, §4

[15] = tested on: mouse intestinal organoids (enteroids); conditions: C57BL/6, mouse
[16] = tested on: mouse intestinal organoids (enteroids); assay: Mouse intestinal organoids' tolerance assay (alamarBlue); conditions: read-out: Citotoxicity CC50 (μM) Ent; mouse enteroid
[17] = read-out: EC50 (μM) at 24 h, C. elegans motility, DR assay
[18] = 0 h, read-out: Inhibition (%) 110 μM (0 h), C. elegans L4 motility, 110 μM, 0 h, mean ± SD of four experiments
[19] = 24 h, read-out: Inhibition (%) 110 μM (24 h), C. elegans L4 motility, 110 μM, 24 h, mean ± SD of four experiments
[20] = read-out: Citotoxicity CC50 (μM) Sph
[21] = Haemonchus contortus, susceptible strain, 100 μM, NE = Not Effective at 100 μM, control thiabendazole 0.1 µg/mL
[22] = Teladorsagia circumcincta, resistant strain, 100 μM, NE = Not Effective at 100 μM, control thiabendazole 0.1 µg/mL
[23] = Caenorhabditis elegans, 24 h, read-out: EC50 (μM) at 24 h, C. elegans motility, DR assay, 24 h
[24] = read-out: EC50 found in the literature
[25] = 24 h, read-out: Percentage of motility inhibition 24 h, Table S2, C. elegans SS assay, 110 μM, 24 h, averages of 4 data points
[26] = Selective Index (SI) CC50/EC50 Ent/H. c, CC50 mouse enteroid / EC50 H. contortus
[27] = Selective Index (SI) CC50/EC50 Ent/T. c, CC50 mouse enteroid / EC50 T. circumcincta
[28] = HepG2 liver spheroids, read-out: Citotoxicity CC50 (μM) Sph

Molecule: O=C(/C=C/c1ccccc1)c1ccccc1 [Chalcone]
EC50 (C. elegans [1]; [17]): 52.4 ± 1.4 µM
selectivity ratio (in vitro; Selective Index (SI) CC50/EC50 Ent/H. c): > 13.5
selectivity ratio (in vitro; Selective Index (SI) CC50/EC50 Ent/T. c): > 5.1
Percentage of motility inhibition 24 h (C. elegans [2]; 24 h, 110 µM): 86%
EC50 (C. elegans [3]; nematocidal, read-out: EC50 against C. elegans): 52 ± 9 µM
inhibition at 110 µM (C. elegans [4]; [18]): 30 ± 30%
inhibition at 110 µM (C. elegans [4]; [19]): 85 ± 15%
CC50 at 3 d [5, 20]: > 90 µM
selectivity ratio ([5]; pH 7.2, Selective Index (SI) CC50/EC50 Sph/H. c): > 24.3
selectivity ratio ([5]; pH 7.2, Selective Index (SI) CC50/EC50 Sph/T. c): > 9.2
EC50 ([6]; Haemonchus contortus): 3.7 ± 0.1 µM
inhibition at 100 µM [6, 21]: 99.4 ± 0.1%
inhibition at 100 µM [7]: 4.7 ± 1.5%
H. contortus LMIT (%) [8]: 45.7 ± 4.5%
CC50 at 3 d [9]: > 50 µM
EC50 ([10]; Teladorsagia circumcincta): 9.8 ± 0.3 µM
inhibition at 100 µM [10, 22]: 100%

EC50 (C. elegans [1]; [23]): 0.79 µM
Molecule: CO/N=C1\C[C@]2(C[C@@H]3C[C@@H](C/C=C(\C)C[C@@H](C)/C=C/C=C4\CO[C@@H]5[C@H](O)C(C)=C[C@@H](C(=O)O3)[C@]45O)O2)O[C@H](/C(C)=C/C(C)C)[C@H]1C [Moxidectin, reference compound]
EC50 (C. elegans [3]; [24]): 0.03 µM
inhibition at 110 µM (C. elegans [4]; [18]): 99 ± 1%
inhibition at 110 µM (C. elegans [4]; [19]): 85 ± 13%
inhibition at 110 µM (C. elegans [4]; [25]): 86%

EC50 (C. elegans [1]; [23]): 6.9 ± 0.5 µM
Molecule: CCCCCCCCN=c1ccn(CCCCCCCCCCn2ccc(=NCCCCCCCC)cc2)cc1 [Octenidine, reference compound]
GHS classification [11]: category 4: acute toxicity
inhibition at 110 µM (C. elegans [4]; [18]): 84 ± 1%
inhibition at 110 µM (C. elegans [4]; [19]): 96 ± 5%
CC50 at 3 d [5, 20]: 54.1 ± 2.8 µM
selectivity ratio at 3 d ([5]; HepG2 liver spheroids, pH 7.2, CC50 HepG2 spheroids / EC50 H. contortus, read-out: Selective Index (SI) CC50/EC50 Sph/H. c): 25.8
selectivity ratio at 3 d ([5]; HepG2 liver spheroids, pH 7.2, CC50 HepG2 spheroids / EC50 T. circumcincta, read-out: Selective Index (SI) CC50/EC50 Sph/T. c): 3.6
EC50 ([6]; Haemonchus contortus): 2.1 ± 0.1 µM
inhibition at 100 µM [6, 21]: 99.5 ± 0.8%
Concentration leading to a microbial reduction of more than 99% within 15 min [12]: below 1.5 μM
inhibition at 100 µM [7]: 94.8 ± 4.3%
inhibition at 100 µM [8]: 98.3 ± 0.3%
CC50 at 3 d [9]: 14.2 ± 0.4 µM
selectivity ratio at 3 d [9, 26]: 6.8
selectivity ratio at 3 d [9, 27]: 0.9
EC50 ([10]; Teladorsagia circumcincta): 15.1 ± 4.8 µM
inhibition at 100 µM [10, 22]: 99.5 ± 0.9%

Molecule: CCc1nn(C)c(C(=O)NCc2ccc(Oc3ccc(C)cc3)cc2)c1Cl [Tolfenpyrad]
GHS classification [11]: category 4: acute toxicity
EC50 (C. elegans [1]; Caenorhabditis elegans, read-out: EC50 (μM) at 24 h, C. elegans motility, DR assay): 2.4 ± 0.2 µM
CC50 (in vitro): < 1 µM
selectivity ratio (in vitro; [26]): < 0.7
selectivity ratio (in vitro; [27]): < 5
EC50 (C. elegans [3]; [24]): 3.6 µM
Plasma concentration in a poisoning case [13]: 1.97 µg/mL and 5.08 µM
inhibition at 110 µM (C. elegans [4]; 0 h, read-out: Inhibition (%) 110 μM (0 h)): 80 ± 2%
inhibition at 110 µM (C. elegans [4]; 24 h, read-out: Inhibition (%) 110 μM (24 h)): 98 ± 2%
selectivity ratio ([5]; pH 7.2, CC50 HepG2 spheroids / EC50 H. contortus, read-out: Selective Index (SI) CC50/EC50 Sph/H. c): > 33.3
selectivity ratio ([5]; pH 7.2, CC50 HepG2 spheroids / EC50 T. circumcincta, read-out: Selective Index (SI) CC50/EC50 Sph/T. c): 250
CC50 [5, 28]: > 50 µM
EC50 ([6]; Haemonchus contortus): 1.5 ± 0.1 µM
inhibition at 100 µM [6, 21]: 96 ± 2.9%
inhibition at 100 µM [8]: 9 ± 6.3%
EC50 ([10]; Teladorsagia circumcincta): 0.2 ± 0.3 µM
inhibition at 100 µM [10, 22]: 99.7 ± 0.5%
IC50 (H. contortus L3-L4): 0.02 to 3 µM
Maximum tolerated dose (MTD) [14]: 1 mg/kg

Molecule: O=C(/C=C/c1ccccc1)c1ccccc1 [Trans-chalcone]
EC50 (C. elegans [1]; [17]): 24.9 ± 1.8 µM
Inhibition (%) 110 μM (0 h) (C. elegans [2]; 0 h, 110 μM): 16 ± 17%
Inhibition (%) 110 μM (24 h) (C. elegans [2]; 24 h, 110 µM): 95 ± 5%
inhibition at 110 µM (C. elegans [4]; 0 h, read-out: Percentage of motility inhibition 0 h, Table S2, C. elegans SS assay, 110 μM, 0 h, averages of 4 data points): 17%
inhibition at 110 µM (C. elegans [4]; [25]): 96%
CC50 (HepG2 liver spheroids; [28]): > 90 µM
Selective Index (SI) CC50/EC50 Sph/H. c (HepG2 liver spheroids; human, pH 7.2): >29.0
Selective Index (SI) CC50/EC50 Sph/T. c (HepG2 liver spheroids; human, pH 7.2): >18.4
EC50 [6]: 3.1 ± 0.2 µM
H. contortus EHI (%) ([6]; susceptible strain, 100 μM, NE = Not Effective at 100 μM, control thiabendazole 0.1 µg/mL): 99.5 ± 0.7%
H. contortus LMIT (%) [8]: 20.3 ± 7.5%
Selective Index (SI) CC50/EC50 Ent/H. c [15]: >16.1
Selective Index (SI) CC50/EC50 Ent/T. c [15]: >10.2
CC50 [16]: > 50 µM
EC50 [10]: 4.9 ± 0.2 µM
T. circumcincta EHI (%) ([10]; resistant strain, 100 μM, NE = Not Effective at 100 μM, control thiabendazole 0.1 µg/mL): 99.9 ± 0.2%

Molecule: Ivermectin [reference compound]
EC50 (C. elegans [1]; [17]): 2.18 µM
Inhibition (%) 110 μM (0 h) (C. elegans [2]): 98 ± 1%
Inhibition (%) 110 μM (24 h) (C. elegans [2]): 85 ± 14%
EC50 (C. elegans [3]; [24]): 0.19 µM
T. circumcincta LMIT (%) [7]: 100.0 ± 0.0%
H. contortus LMIT (%) [8]: 100.0 ± 0.0%
